# Legend:
# [1] = biological target: human MGL from HeLa cells (Homo sapiens (Human), UniProt Q99685); assay: MGL in vitro activity assay ([glycerol-1,3-3H]-oleyl glycerol cleavage); assay type: biochemical; conditions: 300 nM [Glycerol-1,3-3H]-oleyl glycerol, one hour incubation, endogenous MGL from HeLa cells
# Experimental: The assay used to measure the in vitro activity of MGL is adapted from the assay used for another serine hydrolase (FAAH) described in Wilson et al., 2003 (A high-throughput-compatible assay for determining the activity of fatty acid amide hydrolase. Wilson S J, Lovenberg T W, Barbier A J. Anal Biochem. 2003 Jul. 15; 318(2):270-5.). The assay consists of combining endogenously expressed MGL from HeLa cells with test compounds, adding [glycerol-1,3-^3H]-oleyl glycerol, incubating for one hour, and then measuring the amount of cleaved [1,3-^3H]-glycerol that passes through an activated carbon filter. The amount of cleaved, tritiated glycerol passing through the carbon filter is proportional to the activity of the MGL enzyme in a particular well/test condition.
# Standard conditions for this assay combine 300 nM [Glycerol-1,3-^3H]-oleyl glycerol with human MGL from HeLa cells and test compounds for one hour, after which the reaction is filtered through activated carbon and tritium is measured in the flow through. The test compound concentration in screening mode is 10 uM, while the highest compound concentration in IC50 assays is determined empirically. MGL is the predominant hydrolase in HeLa cells/cell homogenates.
# MGL = MGL (Rattus norvegicus (Rat), UniProt Q8R431); assay: In vitro autoradiography (ARG) on frozen normal rat brain sections; assay type: binding; conditions: sagittal rat brain section 20 um, 400 uCi/ml in 50 mM Tris-HCl pH 7.4, 30 min at room temperature
# Experimental: In vitro ARG using the compound of Example 3 was performed on a frozen normal rat brain sections (sagittal cut, thickness at 20 um). After taken out from freezer for 15 min, the rat brain section was added 250 ul of buffer solution (50 mM Tris-HCl pH=7.4) which contains the compound of Example 3 with the concentration of 400 uCi/ml. The brain section was incubated with the incubation buffer at room temperature for 30 min, was then washed with blank fresh buffer solution for 5 min, repeated 3 times. The brain section was air-dried, exposed to a phosphor screen in a cassette in dark environment for 18 hours. The screen was then scanned then Typhoon™ FLA 7000 Image Analyzer (GE) to generate the autoradiography of the compound of Example 3 on rat brain section (FIG. 2). […] The distribution pattern matches IHC staining pattern described below.
# The IHC staining was performed on a frozen normal rat brain section (sagittal cut, thickness at 10 um) which is adjacent to the brain section used in ARG described above. After taken out from freezer for 15 min, the rat brain section was added 4% paraformaldehyde and fixed for 20 min at room temperature. The section was then washed with fresh phosphate buffer solution (PBS, 0.01 M, pH=7.4) for 5 min, repeated 3 times, followed by treatment of hydrogen peroxide solution (3% in PBS) at room temperature for 20 min. […]
# Chain of MGL (Q8R431 whole entry): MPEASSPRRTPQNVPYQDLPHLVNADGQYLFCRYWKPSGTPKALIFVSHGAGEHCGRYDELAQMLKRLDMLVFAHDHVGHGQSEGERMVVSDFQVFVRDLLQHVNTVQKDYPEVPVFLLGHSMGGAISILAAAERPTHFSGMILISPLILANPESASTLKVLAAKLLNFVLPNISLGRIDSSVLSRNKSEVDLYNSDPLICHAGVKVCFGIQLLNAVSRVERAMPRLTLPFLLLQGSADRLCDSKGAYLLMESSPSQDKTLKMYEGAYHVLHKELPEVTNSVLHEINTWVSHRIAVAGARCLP
# Chain of human MGL from HeLa cells (Q99685 whole entry): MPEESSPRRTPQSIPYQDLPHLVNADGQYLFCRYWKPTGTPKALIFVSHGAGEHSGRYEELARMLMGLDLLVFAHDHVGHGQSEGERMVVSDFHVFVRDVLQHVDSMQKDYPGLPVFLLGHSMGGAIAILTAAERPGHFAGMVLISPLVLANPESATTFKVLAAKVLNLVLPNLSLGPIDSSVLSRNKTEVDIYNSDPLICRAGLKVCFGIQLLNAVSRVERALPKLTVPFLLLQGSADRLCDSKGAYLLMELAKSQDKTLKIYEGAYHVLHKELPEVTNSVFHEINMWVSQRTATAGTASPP
IC50 [1] [pM],SMILES,ARG signals (regional distribution) (MGL)
2.3,"C[C@H]1c2nn(C)c(-c3cc(F)cc(F)c3)c2CCN1C(=O)c1c(F)cccc1Cl [Example 1, (S)-(2-Chloro-6-fluorophenyl)(3-(3,5-difluorophenyl)-2,7-dimethyl-2,4,5,7-tetrahydro-6H-pyrazolo[3,4-c]pyridin-6-yl)methanone]",–
–,C[C@H]1c2nn(C)c(-c3cc(F)cc(F)c3)c2CCN1C(=O)c1c([18F])cccc1Cl [Example 3],"high in hippocampus, cortex, cerebellum and thalamus regions and low in brainstem"

# From US11839663B2, “Radiolabelled MGL pet ligands” (Janssen Pharmaceutica NV, priority 2019, dated 2023)
